Test results published in ChEMBL document CHEMBL1121563, “8-Hydroxyanthracyclinones from epsilon-rhodomycinone” (1980).
Calls of active or inactive are those of the source. No cut-off for these calls is given here.

Tests used:
Bacillus subtilis = assay: Compound was tested for its lambda-phage induction activity against Bacillus subtilis in a disk plate assay at concentration of dose of 0.8 ug/mL; Active; type: functional, organism-based
Escherichia coli [1] = assay: Compound is evaluated for lambda-phage induction activity in Escherichia coli (dose at 0.8 ug/mL); type: functional
Escherichia coli [2] = assay: Compound is evaluated for lambda-phage induction activity in Escherichia coli (dose at 1.6 ug/mL); type: functional
Escherichia coli [3] = assay: Compound is evaluated for lambda-phage induction activity in Escherichia coli (dose at 3.1 ug/mL); type: functional
Escherichia coli [4] = assay: Compound is evaluated for lambda-phage induction activity in Escherichia coli (dose at 6.2 ug/mL); type: functional
Escherichia coli [5] = assay: Compound is evaluated for lambda-phage induction activity in Escherichia coli (dose at 12.5 ug/mL); type: functional
Escherichia coli [6] = assay: Compound is evaluated for lambda-phage induction activity in Escherichia coli (dose at 25 ug/mL); type: functional
Escherichia coli [7] = assay: Compound is evaluated for lambda-phage induction activity in Escherichia coli (dose at 50 ug/mL); type: functional
Escherichia coli [8] = assay: Compound is evaluated for lambda-phage induction activity in Escherichia coli (dose at 6.2 ug/mL); Toxic to culture; type: functional
Escherichia coli [9] = assay: Compound is evaluated for lambda-phage induction activity in Escherichia coli (dose at 50 ug/mL); Toxic to culture; type: functional

Compound | Activity (Bacillus subtilis) | Activity (Escherichia coli [1]) | Activity (Escherichia coli [2]) | Activity (Escherichia coli [3]) | Activity (Escherichia coli [4]) | Activity (Escherichia coli [5]) | Activity (Escherichia coli [6]) | Activity (Escherichia coli [7]) | Activity (Escherichia coli [8]) | Activity (Escherichia coli [9])
CC(=O)[C@]1(O)Cc2c(O)c3c(c(O)c2[C@@H](O[C@H]2C[C@H](N)[C@H](O)[C@H](C)O2)C1)C(=O)c1c(O)cccc1C3=O [CARUBICIN] | Active | 2.2 | 3 | 6.2 | 7 | – | – | – | – | –
CCC1=CCc2c(O)c3c(c(O)c2[C@H]1C(=O)OC)C(=O)c1cccc(O)c1C3=O | – | – | – | – | 2.8 | 6 | 9.3 | 13.4 | – | –
CC[C@@]12O[C@@H]1Cc1c(O)c3c(c(O)c1[C@H]2C(=O)OC)C(=O)c1cccc(O)c1C3=O | – | – | – | 1.2 | 1.4 | 1.1 | 2 | 3 | – | –
COc1cccc2c1C(=O)c1c(O)c3c(c(O)c1C2=O)C[C@@](O)(C(C)=O)C[C@@H]3O[C@H]1C[C@H](N)[C@H](O)[C@H](C)O1 [DAUNORUBICIN] | Active | 3.1 | 5.3 | 11.9 | – | – | – | – | 11.1 | –
CC[C@@]1(O)C[C@H](O)c2c(O)c3c(c(O)c2[C@H]1C(=O)OC)C(=O)c1cccc(O)c1C3=O | – | – | – | – | – | 1.5 | 1.8 | – | – | 2.9
CC[C@]12O[C@H]1Cc1c(O)c3c(c(O)c1[C@H]2C(=O)OC)C(=O)c1cccc(O)c1C3=O | – | – | – | 1.2 | 1.3 | 1.5 | 1.9 | 2.9 | – | –
CC[C@H]1CCc2c(O)c3c(c(O)c2[C@H]1C(=O)OC)C(=O)c1cccc(O)c1C3=O | – | – | – | 1 | 1.3 | 1.2 | 1.8 | 2.4 | – | –
